In brackets after ≈: the same amount, converted by molar mass. Like-named read-outs stand apart in the source and are kept apart here.
How the values were obtained:
Diplodia maydis (Dm) = assay: Growth inhibition assay of fungal pathogens; type: cell-based; conditions: Stenocarpella maydis, 48 h, read-out: Concentration at 90% Inhibition Dm
Method in brief: (§1)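 Spores of Fm, Bc and Dm were suspended in 17% V8 liquid medium, while Rs was inoculated as 1.5 mm mycelial plugs in ¼ PDB. Compounds were tested at final 50, 10 and 2 ppm or 2, 0.4 and 0.08 ppm. Percent growth inhibition at 48 h versus 2% DMSO came from OD600 and visual ratings.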

[1] = test system: Fusarium virguliforme (Fv); assay: Growth inhibition assay of fungal pathogens; type: cell-based; conditions: 48 h
Method in brief: (§2)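 Percent growth inhibition was derived from 48 h OD600 and visual scores relative to 2% DMSO, with blank background subtraction. Fungi were grown from spores in 17% V8 liquid medium, R. solani from 1.5 mm plugs in ¼ PDB, with compound at final 50/10/2 or 2/0.4/0.08 ppm.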

Botrtyis cinerea (Bc) = assay: Growth inhibition assay of fungal pathogens; type: cell-based; conditions: 48 h, read-out: Concentration at 90% Inhibition Bc
Method in brief: as §1

Septoria tritici (St) = assay: Growth inhibition assay of fungal pathogens; type: cell-based; conditions: for IC90: Zymoseptoria tritici, read-out: Concentration at 90% Inhibition St
Method in brief: as §2

Rhizoctonia solani (Rs) = assay: Growth inhibition assay of fungal pathogens; type: cell-based; conditions: 48 h, read-out: Concentration at 90% Inhibition Rs
Method in brief: as §1

[2] = test system: Fusarium moniliforme (Fm); assay: Growth inhibition assay of fungal pathogens; type: cell-based; conditions: for IC90: Fusarium verticillioides, 48 h, read-out: Concentration at 90% Inhibition Fm
Method in brief: as §1

[3] = test system: Collectotrichum graminicola (Cg); assay: Growth inhibition assay of fungal pathogens; type: cell-based; conditions: 48 h, read-out: Concentration at 90% Inhibition Cg
Method in brief: as §2

[4] = test system: Phytophthora capsici (Pc); assay: Growth inhibition assay of fungal pathogens; type: cell-based; conditions: for IC90: Phytophthora capsici, read-out: Concentration at 90% Inhibition Pc
Method in brief: as §2

[5] = test system: C. parapsilosis ATCC 22019; assay: Anti-Fungal (Candida) Activity Assay, broth microtiter MIC; type: cell-based; conditions: Lodderomyces parapsilosis, read-out: MIC C. parapsilosis ATCC 22019
Method in brief: (§3)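 MIC by visual comparison of challenged wells with growth control, scored at 48 h. Setup: CLSI M27-A3 broth microtiter plates, RPMI 1640+MOPS medium, direct colony suspension from overnight Sabouraud agar cultures (35 °C, 24 h).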

C. albicans ATCC 90028 = assay: as above; type: cell-based; conditions: read-out: MIC C. albicans ATCC 90028
Method in brief: as §3

C. krusei ATCC 6258 = assay: as above; type: cell-based; conditions: Pichia kudriavzevii, read-out: MIC C. krusei ATCC 6258
Method in brief: as §3

human (hACC2) ACC2 = human (hACC2) ACC2 (Homo sapiens, UniProt O00763); assay: In vitro Acetyl-CoA Carboxylase (ACC) inhibition assay (ADP-Glo), hACC2; type: biochemical
Description: The detailed procedure is as follows. […] 10 μL ADP glo reagent was added. […] 20 μL kinase detection reagent was added.
“NA” stands for “not assayed.”

[6] = read-out: Concentration at 90% Inhibition Fv, Table 4a, 48 hours
[7] = read-out: Concentration at 90% Inhibition Fv, Table 4b, 48 hours
[8] = Table 4a, 48 hours, read-out: Concentration at 90% Inhibition Fv
[9] = Table 4b, 48 hours, read-out: Concentration at 90% Inhibition Fv
[10] = ATCC22019, 3 replicates, MIC recorded at 48 h
[11] = ATCC90028, 3 replicates, MIC recorded at 48 h
[12] = ATCC6258, 3 replicates, MIC recorded at 48 h

Chain of human (hACC2) ACC2 (O00763 whole entry): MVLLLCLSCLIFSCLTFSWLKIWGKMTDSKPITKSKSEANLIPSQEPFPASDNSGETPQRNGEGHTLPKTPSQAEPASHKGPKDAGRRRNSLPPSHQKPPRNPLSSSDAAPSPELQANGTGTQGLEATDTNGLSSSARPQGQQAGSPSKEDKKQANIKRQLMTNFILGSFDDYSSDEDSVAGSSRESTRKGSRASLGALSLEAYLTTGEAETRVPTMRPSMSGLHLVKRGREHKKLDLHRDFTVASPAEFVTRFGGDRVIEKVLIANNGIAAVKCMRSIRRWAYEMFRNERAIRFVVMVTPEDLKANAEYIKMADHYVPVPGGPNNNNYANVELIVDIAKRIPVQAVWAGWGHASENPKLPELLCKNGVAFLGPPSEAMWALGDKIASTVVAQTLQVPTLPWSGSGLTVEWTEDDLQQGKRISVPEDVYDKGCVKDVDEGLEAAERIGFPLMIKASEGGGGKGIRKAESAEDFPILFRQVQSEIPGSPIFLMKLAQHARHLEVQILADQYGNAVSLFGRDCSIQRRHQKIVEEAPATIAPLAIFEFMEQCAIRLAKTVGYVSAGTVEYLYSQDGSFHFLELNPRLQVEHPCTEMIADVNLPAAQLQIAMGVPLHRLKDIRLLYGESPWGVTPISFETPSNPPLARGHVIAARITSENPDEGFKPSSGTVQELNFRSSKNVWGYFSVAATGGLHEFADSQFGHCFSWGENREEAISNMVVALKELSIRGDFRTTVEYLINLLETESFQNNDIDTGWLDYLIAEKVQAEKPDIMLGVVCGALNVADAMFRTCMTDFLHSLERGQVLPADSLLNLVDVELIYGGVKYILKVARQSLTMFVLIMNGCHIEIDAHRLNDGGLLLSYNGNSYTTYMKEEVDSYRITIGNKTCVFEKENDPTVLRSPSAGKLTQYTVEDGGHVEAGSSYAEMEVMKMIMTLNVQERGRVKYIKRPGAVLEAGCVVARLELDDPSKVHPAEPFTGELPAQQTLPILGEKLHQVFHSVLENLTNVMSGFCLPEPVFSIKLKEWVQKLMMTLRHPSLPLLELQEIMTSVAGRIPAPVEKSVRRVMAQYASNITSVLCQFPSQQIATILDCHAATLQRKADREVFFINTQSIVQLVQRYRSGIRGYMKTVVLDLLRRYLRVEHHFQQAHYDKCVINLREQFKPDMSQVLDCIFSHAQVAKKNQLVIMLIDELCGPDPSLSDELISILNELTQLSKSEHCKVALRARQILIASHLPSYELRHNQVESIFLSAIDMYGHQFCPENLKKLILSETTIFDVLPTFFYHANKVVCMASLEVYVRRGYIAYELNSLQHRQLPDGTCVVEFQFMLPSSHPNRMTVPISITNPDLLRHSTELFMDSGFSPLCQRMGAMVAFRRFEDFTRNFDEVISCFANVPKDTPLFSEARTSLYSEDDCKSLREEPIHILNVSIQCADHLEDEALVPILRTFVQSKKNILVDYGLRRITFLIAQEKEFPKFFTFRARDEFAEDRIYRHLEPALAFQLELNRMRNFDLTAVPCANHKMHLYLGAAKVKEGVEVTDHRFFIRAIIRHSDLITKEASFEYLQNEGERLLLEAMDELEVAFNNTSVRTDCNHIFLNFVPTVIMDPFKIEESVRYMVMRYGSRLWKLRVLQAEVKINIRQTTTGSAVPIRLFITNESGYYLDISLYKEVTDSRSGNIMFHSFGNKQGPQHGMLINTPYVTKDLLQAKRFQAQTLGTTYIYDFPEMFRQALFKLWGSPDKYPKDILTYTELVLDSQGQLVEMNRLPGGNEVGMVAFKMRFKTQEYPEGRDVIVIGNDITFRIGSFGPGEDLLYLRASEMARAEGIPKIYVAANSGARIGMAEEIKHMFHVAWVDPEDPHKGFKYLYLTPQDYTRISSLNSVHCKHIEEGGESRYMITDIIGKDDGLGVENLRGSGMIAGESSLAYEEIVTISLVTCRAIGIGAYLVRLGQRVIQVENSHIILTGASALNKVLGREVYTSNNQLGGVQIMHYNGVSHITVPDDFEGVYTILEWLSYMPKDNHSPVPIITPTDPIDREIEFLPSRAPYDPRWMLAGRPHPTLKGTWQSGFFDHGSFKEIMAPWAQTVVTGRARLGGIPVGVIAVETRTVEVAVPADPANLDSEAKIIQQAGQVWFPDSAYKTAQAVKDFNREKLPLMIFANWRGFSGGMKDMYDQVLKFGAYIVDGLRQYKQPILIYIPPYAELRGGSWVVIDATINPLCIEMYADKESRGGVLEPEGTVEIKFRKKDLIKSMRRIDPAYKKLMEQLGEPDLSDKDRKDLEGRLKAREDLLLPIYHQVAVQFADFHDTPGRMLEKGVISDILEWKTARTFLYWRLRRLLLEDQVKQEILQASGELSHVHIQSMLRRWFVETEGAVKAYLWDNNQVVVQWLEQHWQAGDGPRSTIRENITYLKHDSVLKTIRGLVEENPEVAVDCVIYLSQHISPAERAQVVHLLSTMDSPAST

| Structure (SMILES) | IC90 (Diplodia maydis (Dm); Table 4a) | IC90 (Diplodia maydis (Dm); Table 4b) | IC90 [1, 6] | IC90 [1, 7] | IC90 (Botrtyis cinerea (Bc); Table 4a) | IC90 (Botrtyis cinerea (Bc); Table 4b) | IC90 (Septoria tritici (St); 48 h, Table 4a) | IC90 (Septoria tritici (St); 48 h, Table 4b) | IC90 (Rhizoctonia solani (Rs); Table 4a) | IC90 (Rhizoctonia solani (Rs); Table 4b) | IC90 [2] | Concentration at 90% Inhibition Fm ([2]; Table 4b, 48 hours) | IC90 ([3]; Table 4a) | IC90 ([3]; Table 4b) | IC90 ([4]; 48 h, Table 4a) | IC90 ([4]; 48 h, Table 4b) | MIC ([5]; ATCC22019, 48 h) | MIC (C. albicans ATCC 90028; ATCC90028, 48 h) | MIC (C. krusei ATCC 6258; ATCC6258, 48 h) | IC50 (human (hACC2) ACC2) | further results |
| --- | --- | --- | --- | --- | --- | --- | --- | --- | --- | --- | --- | --- | --- | --- | --- | --- | --- | --- | --- | --- | --- |
| COc1ccccc1[C@H](Cn1c(=O)n(C(C)(C)C(=O)NC(C)C)c(=O)c2c(C)c(-n3cccn3)sc21)OC1CCOCC1 [Compound I-11, (R)—N-isopropyl-2-(1-(2-(2-methoxyphenyl)-2-((tetrahydro-2H-pyran-4-yl)oxy)ethyl)-5-methyl-2,4-dioxo-6-(1H-pyrazol-1-yl)-1,4-dihydrothieno[2,3-d]pyrimidin-3(2H)-yl)-2-methylpropanamide] | > 50 µg/mL | 10 µg/mL (≈ 16.4 µM) | > 50 µg/mL | 10 µg/mL (≈ 16.4 µM) | > 50 µg/mL | 10 µg/mL (≈ 16.4 µM) | > 50 µg/mL | > 50 µg/mL | > 50 µg/mL | > 50 µg/mL | 2 µg/mL (≈ 3.28 µM) | B (“B” provided a compound concentration of 2.0 ppm at 90% inhibition of fungal pathogens) | > 50 µg/mL | 10 µg/mL (≈ 16.4 µM) | > 50 µg/mL | > 50 µg/mL | > 4.1 µg/mL | > 4.1 µg/mL | > 4.1 µg/mL | 10 to 40 nM | – |
| COc1ccc(F)cc1[C@H](Cn1c(=O)n(C(C)(C)C(N)=O)c(=O)c2c(C)c(-n3cccn3)sc21)O[C@H]1CC[C@@H](O)CC1 [Compound I-5, 2-(1-((R)-2-(5-fluoro-2-methoxyphenyl)-2-(((s,4S)-4-hydroxycyclohexyl)oxy)ethyl)-5-methyl-2,4-dioxo-6-(1H-pyrazol-1-yl)-1,4-dihydro-thieno[2,3-d]pyrimidin-3(2H)-yl)-2-methylpropanamide] | > 50 µg/mL | 10 µg/mL (≈ 16.7 µM) | – | – | 2 µg/mL (≈ 3.34 µM) | 2 µg/mL (≈ 3.34 µM) | – | – | > 50 µg/mL | 10 µg/mL (≈ 16.7 µM) | – | – | > 50 µg/mL | > 50 µg/mL | – | – | – | – | – | 3 to 10 nM | IC90 [1, 8]: > 50 µg/mL; IC90 [1, 9]: 10 µg/mL (≈ 16.7 µM); Concentration at 90% Inhibition St (Septoria tritici (St); Table 4b, 48 hours): D (“D” provided a compound concentration of >50 ppm at 90% inhibition of fungal pathogens); IC90 (Septoria tritici (St); Table 4a, 48 hours): > 50 µg/mL; IC90 ([2]; Table 4a, 48 hours): 2 µg/mL (≈ 3.34 µM); IC90 ([2]; Table 4b, 48 hours): 2 µg/mL (≈ 3.34 µM); IC90 ([4]; Table 4a, 48 hours): > 50 µg/mL; Concentration at 90% Inhibition Pc ([4]; Table 4b, 48 hours): D (“D” provided a compound concentration of >50 ppm at 90% inhibition of fungal pathogens); MIC [5, 10]: 2.1 to 4 µg/mL (≈ 3.5 to 6.67 µM); MIC (C. albicans ATCC 90028; [11]): 1.1 to 2 µg/mL (≈ 1.83 to 3.34 µM); MIC (C. krusei ATCC 6258; [12]): 1.1 to 2 µg/mL (≈ 1.83 to 3.34 µM) |
| COc1ccc(F)cc1[C@H](Cn1c(=O)n(C(C)(C)C(=O)N2CCCC2)c(=O)c2c(C)c(-n3cccn3)sc21)OC1CCOCC1 [Compound I-7, (R)-1-(2-(5-fluoro-2-methoxyphenyl)-2-((tetrahydro-2H-pyran-4-yl)oxy)ethyl)-5-methyl-3-(2-methyl-1-oxo-1-(pyrrolidin-1-yl)propan-2-yl)-6-(1H-pyrazol-1-yl)thieno[2,3-d]pyrimidine-2,4(1H,3H)-dione] | 10 µg/mL (≈ 15.6 µM) | 2 µg/mL (≈ 3.13 µM) | – | – | 2 µg/mL (≈ 3.13 µM) | 2 µg/mL (≈ 3.13 µM) | – | – | 2 µg/mL (≈ 3.13 µM) | 2 µg/mL (≈ 3.13 µM) | – | – | 0.4 µg/mL (≈ 0.625 µM) | 0.4 µg/mL (≈ 0.625 µM) | – | – | – | – | – | 3 to 10 nM | IC90 [1, 8]: > 50 µg/mL; IC90 [1, 9]: 10 µg/mL (≈ 15.6 µM); Concentration at 90% Inhibition St (Septoria tritici (St); Table 4b, 48 hours): D (“D” provided a compound concentration of >50 ppm at 90% inhibition of fungal pathogens); IC90 (Septoria tritici (St); Table 4a, 48 hours): > 50 µg/mL; IC90 ([2]; Table 4a, 48 hours): 0.08 µg/mL (≈ 0.125 µM); IC90 ([2]; Table 4b, 48 hours): 0.08 µg/mL (≈ 0.125 µM); IC90 ([4]; Table 4a, 48 hours): > 50 µg/mL; Concentration at 90% Inhibition Pc ([4]; Table 4b, 48 hours): D (“D” provided a compound concentration of >50 ppm at 90% inhibition of fungal pathogens); MIC [5, 10]: 1.1 to 2 µg/mL (≈ 1.72 to 3.13 µM); MIC (C. albicans ATCC 90028; [11]): 1.1 to 2 µg/mL (≈ 1.72 to 3.13 µM); MIC (C. krusei ATCC 6258; [12]): 0.25 to 1 µg/mL (≈ 0.391 to 1.56 µM) |
| COc1ccccc1[C@H](Cn1c(=O)n(C(C)(C)C(=O)NC(C)C)c(=O)c2c(C)c(-n3cccn3)sc21)OC(C)C [Compound I-17, (R)-2-(l-(2-isopropoxy-2-(2-methoxyphenyl)ethyl)-5-methyl-2,4-dioxo-6-(H-pyrazol-1-yl)-1,4-dihydrothieno[2,3-d]pyrimidin-3(2H)-yl)-N-isopropyl-2-methylpropanamide] | 2 µg/mL (≈ 3.52 µM) | 2 µg/mL (≈ 3.52 µM) | 0.4 µg/mL (≈ 0.705 µM) | 0.4 µg/mL (≈ 0.705 µM) | 2 µg/mL (≈ 3.52 µM) | 2 µg/mL (≈ 3.52 µM) | > 50 µg/mL | > 50 µg/mL | > 50 µg/mL | > 50 µg/mL | 0.4 µg/mL (≈ 0.705 µM) | A (“A” provided a compound concentration of 0.4 ppm at 90% inhibition of fungal pathogens) | > 50 µg/mL | 10 µg/mL (≈ 17.6 µM) | > 50 µg/mL | > 50 µg/mL | 0.25 to 1 µg/mL (≈ 0.44 to 1.76 µM) | 0.25 to 1 µg/mL (≈ 0.44 to 1.76 µM) | 0.25 to 1 µg/mL (≈ 0.44 to 1.76 µM) | 3 to 10 nM | – |
| COc1ccccc1[C@H](Cn1c(=O)n(C(C)(C)C(=O)N2CCCCC2)c(=O)c2c(C)c(-n3cccn3)sc21)OC(C)C [Compound I-19, (R)-1-(2-isopropoxy-2-(2-methoxyphenyl)ethyl)-5-methyl-3-(2-methyl-1-oxo-1-(piperidin-1-yl)propan-2-yl)-6-(H-pyrazol-1-yl)thieno[2,3-d]pyrimidine-2,4(1H,3H)-dione] | 2 µg/mL (≈ 3.37 µM) | 2 µg/mL (≈ 3.37 µM) | 0.4 µg/mL (≈ 0.674 µM) | 0.4 µg/mL (≈ 0.674 µM) | 0.4 µg/mL (≈ 0.674 µM) | 0.4 µg/mL (≈ 0.674 µM) | > 50 µg/mL | > 50 µg/mL | 2 µg/mL (≈ 3.37 µM) | 2 µg/mL (≈ 3.37 µM) | 0.08 µg/mL (≈ 0.135 µM) | AA (“AA” provided a compound concentration of 0.08 ppm at 90% inhibition of fungal pathogens) | 10 µg/mL (≈ 16.8 µM) | 2 µg/mL (≈ 3.37 µM) | > 50 µg/mL | > 50 µg/mL | > 4.1 µg/mL | > 4.1 µg/mL | 2.1 to 4 µg/mL (≈ 3.54 to 6.74 µM) | 10 to 40 nM | – |

Source: patent US10941158B2, “Pyrazole ACC inhibitors and uses thereof” (Gilead Apollo, LLC, priority 2015, dated 2021)
